This is an account of results in patent US8993527B2, “Methods, compositions, and formulations for preventing or reducing adverse effects in a patient” (Pericor Therapeutics, Inc., priority 2005, dated 2015).

In data set [1] the test system is HPRT+ neuroblastoma cells. The data set can be described thus: Adenosine excretion by stimulated HPRT+ neuroblastoma cells. Type of data set: cell-based. As to conditions: 50 μM AICA riboside, calcium ionophore A23187, 1.0 μM deoxycoformycin. The method, then: To induce ATP catabolism, the growth medium was replaced by medium containing micromolar amounts of the calcium ionophore A23187 and 1.0 μM deoxycoformycin.

Data set [2] deals with myocardial infarct. As to the kind of experiment: Myocardial infarct size in rats after coronary artery ligation. It counts as in vivo, rat. The note with it: bolus plus osmotic mini-pump infusion, three weeks, vs saline. The source says:
The animals were continuously exposed by infusion of either AICA riboside in saline or saline using osmotic mini-pumps well known to those in the art. After three weeks, the rats were sacrificed and infarct size quantitated by planimarizing stained sections of fixed hearts.

Data set [3] deals with T1, purified pig heart adenosine kinase (Sus scrofa, UniProt A0A5G2R0F5).
T1 construct: 0.1 μg of purified pig heart adenosine kinase; from tissue; host or cells: pig heart
The data set can be described thus: Adenosine kinase activity. It counts as biochemical. The note with it: 0.5 μM [U14C] adenosine, 1 mM ATP, 20 minutes at 37° C. The method, then: Inhibition of enzyme activity was determined using a 0.1 ml assay mixture containing 50 mM Tris-maleate, pH 7.0, 0.1% (w/v) BSA, 1 mM ATP, 1 mM MgCl2, 0.5 μM [U^14 C] adenosine (500 mCi/mmol) and 0.1 μg of purified pig heart adenosine kinase. Different concentrations of test compound were incubated in the assay mixture for 20 minutes at 37° C. From each reaction mixture, 20 μl portions were removed and spotted on 2^2 pieces of Whatman DE81 filter paper. The papers were then washed to remove [^14 C] adenosine in 1 mM ammonium formate followed by deionized water and finally 95% ethanol. The papers were dried, and [^14C] AMP measured by scintillation counting. Activities were determined from the amount of [^14C] AMP formed.

Data set [4] is described as follows: Phase 2 CABG trial: plasma AICA riboside concentrations and clearance. Type of data set: in vivo. The note with it: human, intravenous, low and high doses, pre- and post-bypass, read-out: total plasma clearance (CLp) (converted). Here is the method:
10. Plasma Levels. […] Individual values and group means were tabulated and drug clearance calculated. Dose proportionality was assessed.
The data are also presented graphically in FIG. 18.

Data set [5] has as its system ischemic myocardium. The data set can be described thus: Inosine levels in venous blood of dogs during coronary artery occlusion. It counts as in vivo, dog. As to conditions: over the 60-minute assay period, vs saline. An excerpt:
Thirteen mongrel dogs were anesthetized with phenobarbital. […] C.V. Dis. 20; 55 (1977). […] Two of the surviving saline-treated animals fibrillated. […] That the increase in the levels of adenosine is due, at least in part, to a reduction in the amount of ATP that is converted to inosine was shown by analysis of venous blood from dogs in Example III for inosine levels.

The target of data set [6] is T2, NBTI-specific adenosine transport site (UniProt O54698).
T2 sequence (O54698 1-457): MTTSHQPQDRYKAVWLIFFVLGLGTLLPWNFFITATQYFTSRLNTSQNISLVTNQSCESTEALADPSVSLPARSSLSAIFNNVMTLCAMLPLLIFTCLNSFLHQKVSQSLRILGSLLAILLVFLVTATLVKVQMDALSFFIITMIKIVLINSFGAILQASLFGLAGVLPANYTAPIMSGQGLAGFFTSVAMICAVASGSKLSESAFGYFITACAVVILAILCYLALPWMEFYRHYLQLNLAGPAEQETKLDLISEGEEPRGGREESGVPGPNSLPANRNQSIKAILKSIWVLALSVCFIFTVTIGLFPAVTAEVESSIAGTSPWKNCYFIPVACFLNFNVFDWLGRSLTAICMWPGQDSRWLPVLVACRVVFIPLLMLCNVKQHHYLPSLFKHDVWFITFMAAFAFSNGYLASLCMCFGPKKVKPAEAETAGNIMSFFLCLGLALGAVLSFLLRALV
The data set can be described thus: [3H]-NBTI binding assay. The note with it: read-out: ED50 (50% displacement of bound [3H]-NBTI); 0.5 mg neuronal membrane protein, 0.5 nM [3H]-NBTI, 30 minutes. The method, then: Increasing concentrations of the test compounds were incubated for 30 minutes with 0.5 mg neuronal membrane protein together with 0.5 nM [^3 H]-NBTI in a Tris buffer (pH 7.4) at room temperature. The assays were quenched and membranes collected by rapid filtration. Filters were then solubilized and radioactivity determined by scintillation counting.

The subject of data set [7] is isoproterenol (isuprel)-induced arrhythmias. As to the kind of experiment: Suppression of isoproterenol (isuprel)-induced arrhythmias. It counts as in vivo, rat. The note with it: 1000 mg/kg intraperitoneally. Here is the method:
Five minutes later both animals were anesthetized with 330 mg/kg of chloral hydrate injected intraperitoneally. Then a single EKG lead was attached to each rat for simultaneous recording of the paired rats' electrocardiograms. To produce arrhythmia, each rat was injected subcutaneously with isuprel […].
Beginning 30 minutes after isuprel introduction, the electrocardiograph recording paper speed was run (5 cm/sec) for 10 minutes to count the arrhythmic beats of both animals.

Data set [8] concerns pentylene tetrazol-induced seizures. As to the kind of experiment: Suppression of pentylene tetrazol-induced seizures. Type of data set: in vivo, rat. The note with it: 2000 mg/kg (total dose) intraperitoneal.
The test system of data set [9] is patients undergoing CABG surgery. It counts as in vivo. The note with it: 0.05 mg/kg/min.

T1 sequence (A0A5G2R0F5 1-362): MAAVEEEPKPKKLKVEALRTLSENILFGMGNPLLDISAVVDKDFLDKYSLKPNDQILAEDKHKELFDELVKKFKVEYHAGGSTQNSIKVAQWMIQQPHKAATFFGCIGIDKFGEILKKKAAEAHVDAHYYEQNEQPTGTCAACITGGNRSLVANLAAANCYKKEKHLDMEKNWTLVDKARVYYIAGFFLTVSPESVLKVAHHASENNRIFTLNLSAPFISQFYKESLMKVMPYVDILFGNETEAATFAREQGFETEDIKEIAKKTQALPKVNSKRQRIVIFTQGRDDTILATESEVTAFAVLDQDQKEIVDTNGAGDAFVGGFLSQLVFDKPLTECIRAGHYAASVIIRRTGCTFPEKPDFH

For the compound `NC(=O)c1ncn([C@@H]2O[C@H](CO)[C@@H](O)[C@H]2O)c1N` [1 (1-110), 5-amino-1-β-D-ribofuranosyl-imidazole-4-carboxamide], in data set [1], the “adenosine secreted vs control cells” value is given as “at least twofold more adenosine than control cells”. Also, the “reduction of infarct size” value in data set [2] came to 33%. In data set [3], the IC50 is greater than 5000 µM. The clearance in data set [4] was roughly 20 mL/min/kg. Moreover, the inosine levels entry in [5] is “more than twofold decrease”. Also, in [6], the EC50 is greater than 1000 µM. Moreover, the ventricular fibrillation entry in data set [7] was “complete suppression”. The latency to seizure entry in [8] is listed as “dramatic prolongation of latency to seizure”. For the same compound, the “effect of low-dose acadesine on outcome” value in data set [9] is “no significant effect on any outcome measure”.
